# According to patent US20180186823A1, “PLATINUM COMPOUNDS, COMPOSITIONS, AND USES THEREOF” (PLACON THERAPEUTICS, INC., priority 2015, published 2018):
# Where two headings read alike, the source gives them in different places.
# How the values were obtained:
# H460 cells = assay: In vitro inhibition of cell proliferation (CellTiter-Glo); type: cell-based, human; conditions: 48 hours treatment; starting dose 20 uM, three-fold dilutions
# Experimental: Human cancer cell lines were plated in 96 well plates (Costar) and 24 hours later were treated with a compound for 48-72 hours. Specifically, H460 cells (ATCC) were plated at a concentration of 1,500 cells per well and compound treatment was carried out for 48 hours. Compound starting dose was 20 uM and three-fold serial dilutions were done for a total of ten points. Inhibition of cell proliferation was measured using CellTiter-Glo® reagent using the standard protocol (Promega) and a Glomax® multi+detection system (Promega). Percent proliferation inhibition was calculated using the following formula: % inhibition=(control-treatment)/control*100. Control is defined as vehicle alone. IC50 curves were generated using the nonlinear regression analysis (four parameter) with GraphPad Prism 6.
# [1] = tested on: MX-1 human breast cancer xenograft; type: in vivo, mouse; conditions: for % T/C (mean tumor volume) / % T/C (median tumor volume) / Mean tumor volume / Median tumor volume: days 1, 5, 8, 12
# Text: MX-1 cell line is estrogen receptor negative and Her2 normal. It is generic and BRCA1 and BRCA2 mutant: BRCA1 truncating mutation (3363delGAAA) and BRCA2 mutations (16864A>C, Asn289His, and 22184A>G, Asn991Asp). Average tumor volumes and platinum levels in the tumors were shown in FIG. 29 and Table 9. % T/C in Table 9 is the tumor to control ratio, i.e., the size of tumor divided by the size of tumor control. The lower % T/C is, the higher TGI % is.
# [2] = Tumor platinum levels (ICP-MS) in H460 tumor-bearing nude mice; type: in vivo, mouse
# Experimental: To examine the ability of compounds disclosed herein to accumulate in tumors, a murine cancer model was used. Animals were inoculated with 5×10^5 H460 […] lung cancer cells via subcutaneous injection to the flank. Tumors were allowed to reach an approximate volume of ˜500 mm^3. Animals were then randomized into treatment groups of 3 animals per time point and were dosed at 4 mg/kg. The 24-hour time point was used as a benchmark across compounds.
# Tumor platinum levels were determined by inductively coupled plasma mass spectrometry (ICP-MS). Tumors were excised from animals and dissolved in fuming nitric acid (60% w/w) by adding four parts nitric acid to 1 part tumor w/w and heating overnight at 60° C. The resulting digest was diluted 1:10 in ICP-MS analysis buffer (1% nitric acid, 2% Triton® X-100), and directly introduced into the ICP-MS unit by peristaltic pump. The end dilution factor for the samples as introduced to the ICP-MS was 50×.
# A2780 ovarian xenografts = assay: Tumor growth inhibition in A2780 ovarian xenografts in nude mice; type: in vivo, mouse; conditions: for TGI %: dose not given; for TGI % compared to cisplatin and oxaliplatin (FIG. 17): in vivo screen, A2780 model
# Text: (§1) Tumor measurements were taken twice weekly, using vernier calipers.
# Calu-6 NSCLC xenografts = assay: Tumor growth inhibition in Calu-6 NSCLC xenografts in nude mice; type: in vivo, mouse; conditions: dose not given
# Text: as §1
# Rat toxicology study = type: in vivo
# NCI-H520 = assay: Multiple-dose efficacy study in lung cancer (NSCLC) model NCI-H520; type: in vivo; conditions: 15 mg/kg
# Experimental: Tumor volumes and platinum levels were tracked over a course of 32 days after treatment of multiple doses of compound 8 (dosed at days 0, 3, 7 and 10) in lung cancer (NSCLC) model NCI-H520. Compound 8 was dosed at 15 mg/kg.
# Cell dedifferentiation and apoptosis were studied with immunohistochemical (IHC) and TUNEL stainings.
# [3] = H460 tumors, dosed at 4 mg/kg, 24-hour time point
# [4] = Table 5 study, A2780 xenografts
# [5] = Table 6 study, Calu-6 xenografts
# [6] = nude, mouse, in vivo, 4 mg/kg, 24 h
compound,measurement,setting,value
N.N.[Cl][Pt][Cl] [Cisplatin],IC50,H460 cells,2 µM
same,% T/C (mean tumor volume),"[1]; Day 1, 3 mg/kg",100.6%
same,% T/C (median tumor volume),"[1]; Day 1, 3 mg/kg",105.5%
same,Mean tumor volume,"[1]; Day 1, 3 mg/kg",153.6 mm^3
same,Median tumor volume,"[1]; Day 1, 3 mg/kg",155.2 mm^3
same,% T/C (mean tumor volume),"[1]; Day 5, 3 mg/kg",96.2%
same,% T/C (median tumor volume),"[1]; Day 5, 3 mg/kg",107.3%
same,Mean tumor volume,"[1]; Day 5, 3 mg/kg",343.7 mm^3
same,Median tumor volume,"[1]; Day 5, 3 mg/kg",350.2 mm^3
same,% T/C (mean tumor volume),"[1]; Day 8, 3 mg/kg",39.3%
same,% T/C (median tumor volume),"[1]; Day 8, 3 mg/kg",42.9%
same,Mean tumor volume,"[1]; Day 8, 3 mg/kg",251.2 mm^3
same,Median tumor volume,"[1]; Day 8, 3 mg/kg",266.3 mm^3
same,% T/C (mean tumor volume),"[1]; Day 12, 3 mg/kg",4.9%
same,% T/C (median tumor volume),"[1]; Day 12, 3 mg/kg",5.4%
same,Mean tumor volume,"[1]; Day 12, 3 mg/kg",57.6 mm^3
same,Median tumor volume,"[1]; Day 12, 3 mg/kg",57.6 mm^3
same,TGI % Day 15,"[1]; Day 15, 3 mg/kg",98.6%
same,% T/C (mean tumor volume),"[1]; Day 15, 3 mg/kg",1.4%
same,% T/C (median tumor volume),"[1]; Day 15, 3 mg/kg",1.5%
same,Mean tumor volume,"[1]; Day 15, 3 mg/kg",26.7 mm^3
same,Median tumor volume,"[1]; Day 15, 3 mg/kg",29.7 mm^3
same,Platinum in tumor (mM/mmole/kg platinum dosed),[2]; [3],0.27 mM/mmole/kg platinum dosed
same,TGI %,"A2780 ovarian xenografts; Table 2 study, comparators",54.5%
same,TGI %,"A2780 ovarian xenografts; Table 3 study, comparators",44.2%
same,TGI %,A2780 ovarian xenografts; [4],53.04%
same,TGI %,"Calu-6 NSCLC xenografts; Table 4 study, comparators",91.4%
same,TGI %,Calu-6 NSCLC xenografts; [5],94.57%
CC(=O)[O][Pt]([NH2])([NH2])([Cl])([Cl])[O]C(=O)NCCCCCN1C(=O)C=CC1=O [Compound 8],tumor outcome at day 15 (in words),[1]; day 15,Tumor disappeared
same,kidney toxicity (blood markers and histopathology) compared to cisplatin,Rat toxicology study; at a higher dose of platinum,improvement in kidney toxicity compared to cisplatin
same,other histopathology findings,"Rat toxicology study; rat, in vivo",No other histopathology findings
same,Platinum in tumor (mM/mmole/kg platinum dosed),[2]; [6],0.51 mM/mmole/kg platinum dosed
same,TGI % compared to cisplatin and oxaliplatin (FIG. 17),A2780 ovarian xenografts,superior TGI % to cisplatin and oxaliplatin
same,tumor growth inhibition versus cisplatin,"NCI-H520; days 0, 3, 7 and 10, cisplatin 3 mg/kg, 32 days",superior tumor growth inhibition than cisplatin
same,"apoptosis and dedifferentiation in tumors (IHC, TUNEL)",NCI-H520; images from day 10,significant and sustained increase in apoptosis and dedifferentiation
CCNC(=O)[O][Pt]([NH2])([NH2])([Cl])([Cl])[O]C(=O)CCCCCN1C(=O)C=CC1=O [Compound 7],Platinum in tumor (mM/mmole/kg platinum dosed),[2]; [6],0.51 mM/mmole/kg platinum dosed
CC(=O)[O][Pt]([NH2])([NH2])([Cl])([Cl])[O]C(=O)CCCCCN1C(=O)C=CC1=O [Compound 11],Platinum in tumor (mM/mmole/kg platinum dosed),[2]; [6],0.68 mM/mmole/kg platinum dosed
same,TGI % compared to cisplatin and oxaliplatin (FIG. 17),A2780 ovarian xenografts,superior TGI % to cisplatin and oxaliplatin
COCC(=O)[O][Pt]([NH2])([NH2])([Cl])([Cl])[O]C(=O)CCCCCN1C(=O)C=CC1=O [Compound 9],Platinum in tumor (mM/mmole/kg platinum dosed),[2]; [6],0.53 mM/mmole/kg platinum dosed
O=C1[O][Pt]2([NH][C@@H]3CCCC[C@H]3[NH]2)[O]C1=O [Oxaliplatin],Platinum in tumor (mM/mmole/kg platinum dosed),[2]; [3],0.12 mM/mmole/kg platinum dosed
same,TGI %,"A2780 ovarian xenografts; Table 2 study, comparators",45.9%
same,TGI %,"A2780 ovarian xenografts; Table 3 study, comparators",40.1%
same,TGI %,A2780 ovarian xenografts; [4],43.75%
same,TGI %,"Calu-6 NSCLC xenografts; Table 4 study, comparators",56.7%
same,TGI %,Calu-6 NSCLC xenografts; [5],21.19%
"acetate 6-(2,5-dioxo-2H-pyrrol-1(5H)-yl) hexanoate oxaliplatin [Compound 1]",Platinum in tumor (mM/mmole/kg platinum dosed),[2]; [3],0.57 mM/mmole/kg platinum dosed
same,TGI % compared to cisplatin and oxaliplatin (FIG. 17),A2780 ovarian xenografts,superior TGI % to cisplatin and oxaliplatin
